Earlier results, collected in the PKSmart pharmacokinetics tables (Seal et al. 2025).
Where a SMILES comes first, the peptide text is derived from it. Bridges are numbered along the chain shown (N, C = ends).

experiment: not given per row; by the article one of three: Lombardo et al. 2013, J Clin Pharmacol 53:178, doi 10.1177/0091270012440282; 'New Drugs at FDA', novel drug approvals for 2021 and 2022 (the article's reference 43); Yap, Li, Chen 2006, J Mol Graph Model 24:383, doi 10.1016; conditions: human; in vivo

SMILES	clearance [mL/min/kg]	half-life [h]	Vd [L/kg]
CN(C)CCC[C@]1(c2ccc(F)cc2)OCc2cc(C#N)ccc21	5.21		
CO[C@]1(NC(=O)CSCC#N)C(=O)N2C(C(=O)O)=C(CSc3nnnn3C)CS[C@H]21	1.84		
Cc1cc2c(s1)Nc1ccccc1N=C2N1CCN(C)CC1	5.81	43.5	
CON=C(C(=O)NC1C(=O)N2C(C(=O)[O-])=C(C[N+]34CCC(C(N)=O)(CC3)CC4)CS[C@H]12)c1nsc(N)n1 (some centres not stated)	2.15		
CCN(CC)c1cc(C)n2ncnc2n1	3.79		
COC(=O)C1C=C2CC(=O)CC[C@]2(C)[C@@]23O[C@H]2C[C@@]2(C)[C@H](CC[C@]24CCC(=O)O4)[C@@H]13 (some centres not stated)	2.38		
CCN1CCCC1CNC(=O)c1c(OC)ccc(Br)c1OC (configuration not stated)	1.7		
Cc1ccc(C)c(OCCCC(C)(C)C(=O)O)c1	1.7		
C[C@@H](O)C1C(=O)N2C(C(=O)O)=C(S[C@H]3CNC(C(=O)Nc4cccc(C(=O)O)c4)C3)[C@H](C)[C@@H]12 (some centres not stated)	0.4		
O[C@@H](c1cc(C(F)(F)F)nc2c(C(F)(F)F)cccc12)[C@@H]1CCCCN1	0.41		
CCOC(=O)C(Cc1ccc(F)cc1)NC(=O)C(N)Cc1ccc(N(CCCl)CCCl)cc1 (configuration not stated)	192	0.04	0.58
COc1c(N2CCN[C@@H](C)C2)c(F)cc2c(=O)c(C(=O)O)cn(C3CC3)c12	2.85		
CCN(CC)CCC[C@@H](C)Nc1ccnc2cc(Cl)ccc12	7.09		
C=CCc1ccccc1OC[C@H](O)CNC(C)C	6.47		
Cc1ccc(-c2cc(C(F)(F)F)nn2-c2ccc(S(N)(=O)=O)cc2)cc1	7.59		
COc1ccc(C(=O)Nc2ccccc2CC[C@@H]2CCCCN2C)cc1	177		
O=C(O)C1=C(CSc2nnnn2CS(=O)(=O)O)CS[C@H]2C(NC(=O)C(O)c3ccccc3)C(=O)N12 (some centres not stated)	0.33		
CN[C@@]1(c2ccccc2Cl)CCCCC1=O	16.3		
CC1(C)C(=CC=C2CCCC(C=CC3=[N+](CCCCS(=O)(=O)O)c4ccc(S(=O)(=O)[O-])cc4C3(C)C)=C2Oc2ccc(CC(NC(=O)c3ccc(NCc4cnc5nc(N)[nH]c(=O)c5n4)cc3)C(=O)O)cc2)N(CCCCS(=O)(=O)O)c2ccc(S(=O)(=O)O)cc21 (configuration not stated)		0.44	0.29
CCN(CC)CC#CCOC(=O)[C@](O)(c1ccccc1)C1CCCCC1	8.1		
Cc1nc2ccc(CN(C)c3ccc(C(=O)NC(CCC(=O)O)C(=O)O)s3)cc2c(=O)[nH]1 (configuration not stated)	0.59		
CN1CC[C@@]23c4c5ccc(O)c4OC2C(=O)CC[C@@H]3[C@@H]1C5 (some centres not stated)	19.2		
CC(C)CC(NC(=O)C(Cc1ccccc1)NC(=O)C(N)Cc1ccccc1)C(=O)NC(CCCCN)C(=O)N1CCC(N)(C(=O)O)CC1 (configuration not stated)	3.97		
Oc1ccc2c(c1)C13CCCC[C@@]1(O)[C@H](C2)N(CC1CCC1)CC3	40		
CCOc1cc(N)c(Cl)cc1C(=O)NC[C@H]1CN(Cc2ccc(F)cc2)CCO1	16.2		
CCCC[C@@H]1CC(=O)[C@]2(O)O[C@H]3[C@@H](NC)[C@@H](O)[C@@H](NC)[C@H](O)[C@@H]3O[C@@H]2O1	1.9		

SMILES	clearance [mL/min/kg]	half-life [h]	Vd [L/kg]
COP(=O)(OC)[C@H](O)C(Cl)(Cl)Cl	5.67		
COc1cc2c(cc1OC)CN(C(=O)C(C)NC(CCc1ccccc1)C(=O)O)C(C(=O)O)C2 (configuration not stated)	3.31		
NC(=O)c1cnn([C@H]2O[C@@H](CO)[C@@H](O)[C@@H]2O)n1	5		
CC(=O)NC(CCS)C(=O)O (configuration not stated)	2.06		
CCCC(NC(C)C(=O)N1C(C(=O)O)C[C@@H]2CCCC[C@H]21)C(=O)O (some centres not stated)	10.9		
O=C(O)c1ccccc1Nc1cccc(C(F)(F)F)c1	1.43		
CN[C@H]1CCc2[nH]c3ccc(C(N)=O)cc3c2C1	3.09		
CCCN(CC)C(CC)C(=O)Nc1c(C)cccc1C (configuration not stated)	15.9		
CN(C/C=C/C#CC(C)(C)C)Cc1cccc2ccccc12	17.9		
CN=C1CN(O)C(c2ccccc2)=c2cc(Cl)ccc2=N1			0.25
CS(=O)(=O)c1ccc([C@H](O)[C@@H](CO)NC(=O)C(Cl)Cl)cc1	2.62		
Cc1c(OCC(F)(F)F)ccnc1C[S@@+](O)c1nc2ccccc2[n-]1	6.23		
C[C@@](Cc1ccc(O)c(O)c1)(NN)C(=O)O	18		
CCc1ccc(CCOc2ccc(Cc3sc(=O)[nH]c3O)cc2)nc1	1.43		
Fc1ccc([C@H]2CCNC[C@@H]2COc2ccc3c(c2)OCO3)cc1	6.8		
CN1CCC[C@@H]1c1cccnc1	18.5		
CN(C)CCOc1ccc(/C(=C(\CCCl)c2ccccc2)c2ccccc2)cc1	1.21		
NCCCCC(NC(=O)C1CCCN1C(=O)C1CSSCC(NC(=O)CNC(=O)CNC(=O)CN)C(=O)NC(Cc2ccc(O)cc2)C(=O)NC(Cc2ccccc2)C(=O)NC(CCC(N)=O)C(=O)NC(CC(N)=O)C(=O)N1)C(=O)NCC(N)=O (configuration not stated) (H-GGGCYFQNCPKG-NH2; disulfide 4-9; configuration not given here)	7.61	0.9	0.11
O=C1CN2Cc3c(ccc(Cl)c3Cl)N=C2N1	2.14		
O=C(O)c1cc(O)c2c(c1)C(=O)c1cccc(O)c1C2=O	0.38		
C=CC(=O)Nc1cc(Nc2ncc(C(=O)OC(C)C)c(-c3cn(C)c4ccccc34)n2)c(OC)cc1N(C)CCN(C)C	38.3	18	58.5
CC(=O)N(C[C@H](O)CO)c1c(I)c(C(=O)NCCO)c(I)c(C(=O)NC[C@H](O)CO)c1I	1.44		
CC(C)NC[C@@H](O)COc1cccc2ccccc12	13.7		
C[C@]12CC[C@@H]3c4ccc(O)cc4CC[C@H]3[C@@H]1[C@@H](O)[C@@H](O)[C@@H]2O		27	
O=C(O)CCC(NC(=O)NC(CCCCNC(=O)c1ccc([18F])nc1)C(=O)O)C(=O)O (configuration not stated)		3.47	
CC(C)Nc1nc2cc(Cl)c(Cl)cc2n1[C@H]1O[C@@H](CO)[C@H](O)[C@@H]1O	0.79	4.32	0.46
